We go through two compounds from US11497813B2, “Bortezomib conjugates and methods using same” (Frank EBETINO et al., priority 2015, dated 2022).

Data set [1] has as its system 5TGM1-GFP myeloma cells. Put plainly: Multiple myeloma model, 5TGM1-GFP myeloma cells in NIH-III nude mice. In kind it is in vivo, mouse. The source says: FIG. 25A depicts the groups and treatment used in the experimental examples. FIG. 25B depicts a table of clinical observations. FIG. 25C depicts images of GFP imaging showing the distribution of myeloma cells. FIG. 25D is a table of experimental data showing blood IgG2b levels. FIG. 25E is a table of experimental data showing osteoblast differentiation.
A MM model was generated using tail vein injection of 5TGM1-GFP myeloma cells into 6-week-old female NIH-III nude mice. Tumor burden and bone volume were examined.

The subject of data set [2] is Myeloma cells. Put plainly: Myeloma cell growth in vitro (living cell count). The format is cell-based. To be noted: 24 hrs, living cell numbers counted. On the procedure: Myeloma cells were treated with different concentrations of testing compounds for 24 hrs. The living cell numbers were counted. *p<0.05 vs. Btz.
Data set [3] has as its system fractured mice. Put plainly: Open tibial fracture healing in WT mice. In kind it is in vivo, mouse. On the procedure:
WT mice that received an open tibial fracture were treated with Btz (0.6 mg/kg body weight, ip) or vehicle at day 1, 3, 5, 7, and sacrificed at various days post-fracture. FIG. 2A is an image of the structure of Bortezomib. FIG. 2B is a graph depicting μCT data analyses of callus size from 10 days post-fracture. N+4 mice/group. FIG. 2C is a series of images of representative histology of fractured tibiae stained with alcian blue hematoxylin/orange G eosin showing cartilage (blue) and bone (pink) formation. Histomorphometric measurements were performed with a Visiopharm Imaging Analysis software system. N=3 mice/group. FIG. 2D is a series of graphs depicting data of biomechanical testing of tibiae from 28 days after fracture. N=5 mice/group. FIG. 2E is a series of images of spectra depicting data of immune-phenotyping of callus cells from 7 days post-fracture. FIG. 2F is a series of images of immunoblots depicting protein expression levels of total Ub-proteins and JunB and Runx2 levels in calluses from 10 days post-fracture. *p<0.05 vs. vehicle group.

Where [4] appears, read: myeloma mice, compared with Btz.

Entries after “also recorded” stand apart in the source; their conditions may differ.

Take `CC(C)C[C@H](NC(=O)[C@H](Cc1ccccc1)NC(=O)c1cnccn1)B1OCCN(CCOC(=O)NC(P(=O)(O)O)P(=O)(O)O)CCO1` [BP-Btz1]: the “peripheral blood platelet and cell numbers (blood counts)” value in data set [1] (FIG. 27, compared with Btz) was “less deleterious effects than Btz; also recorded: reduces side effects on blood counts compared with Btz”. The “osteoblast colonies from bone marrow cells” value in data set [1] (bone marrow cells from treated myeloma mice) is “form more osteoblast colonies”. Further, in data set [1] (setting [4]), the myeloma-induced bone loss result was “reduces tumor burden and myeloma-induced bone loss more effectively than Btz; also recorded: prevents myeloma-induced bone loss more effectively than Btz”; the tumor burden result was “reduces tumor burden and myeloma-induced bone loss more effectively than Btz”. The myeloma cell growth entry in data set [2] is “inhibits myeloma cell growth”.
Turning to `CC(C)C[C@H](NC(=O)[C@H](Cc1ccccc1)NC(=O)c1cnccn1)B(O)O` [Btz, [(1R)-3-methyl-1-[[(2S)-1-oxo-3-phenyl-2[(pyrazinylcarbonyl)amino]propyl]amino]butyl] boronic acid], the “expression of osteoblast positive regulators” value in data set [3] (0.6 mg/kg ip day 1, 3, 5, 7, JunB and Runx2 in calluses) is “increases”. Besides, the MSC numbers result in data set [3] (0.6 mg/kg ip day 1, 3, 5, 7, callus cells) was “increases”. In data set [3] (fractured mice), the “Nestin+ MPCs” value is listed as “increased”, the bone strength entry is listed as “increases bone strength” and the callus formation was “accelerates callus formation”. In data set [3] (short-term treatment), the “Ub-proteins in fracture calluses” value is given as “accumulation of Ub-proteins” and the fracture healing result is “increases fracture healing”.
